Assay results published in US11326131B2, “Cleaning composition” (AMITY LIMITED, priority 2008, dated 2022).

Test system: polio virus
Format: cell-based
Settings: tested on its own

## CCCCCCCCCCCCN(CCCN)CCCN [dodecyl dipropylene triamine, Dodecyl dipropylene triamine]
  effect against the polio virus: no effect
